Source: patent publication US12029804B2, “Peptide for promoting mucous membrane permeation and composition containing same” (SOONCHUNHYANG UNIVERSITY INDUSTRY ACADEMY COOPERATION …, priority 2018, dated 2024)
Where two headings read alike, the source gives them in different places. Bridge positions count the residues as written; N and C are the ends. Square brackets hold non-standard residues; d marks the D form. Ends that are not written are not given here. Peptide text beside a SMILES is read from it. I, II: the chains in the order shown. ξ: configuration not given here. Dap(N3) = [N-]=[N+]=NC[C@H](N)C(=O)O; ξDap(N3) = [N-]=[N+]=NCC(N)C(=O)O

How the values were obtained:
in vivo = conditions: rat, in vivo
Protocol: (§1) For a control group, a 0.5% (w/v) levan aqueous solution including doxorubicin without the peptide was prepared.
(§2) At this time, the dosage of peptide-containing drug was 10 mg/kg for each group.
(§3) Before drug administration, the rat was anesthetized and cannulated into the femoral veno-artery using PE-50. An abdominal cavity was opened and the test substance was administered to an upper duodenum of the small intestine.
(§4) After administration of the solution through a cannula inserted into the femoral vein of the rat, each 250 μl of blood was collected at 5, 10, 20, 40, 60, 120, 180 and 240 minutes and saline was supplemented via the femoral artery. The collected blood was centrifuged at 13,000 rpm for 10 minutes so as to obtain 100 μl of plasma. After adding 200 μl of methanol to the obtained plasma, the resulting solution was subjected into vortex, and then centrifuged again at 13,000 rpm for 10 minutes to carry out deproteinization, and the supernatant was quantitatively analyzed by HPLC-Fluorescence.

nasal mucous membrane = conditions: rat, intranasal; for AUC0-360min of fexofenadine, times higher than the group dosed with fexofenadine alone: fexofenadine with peptide (text on Table 1)
Protocol: Male Sprague-Dawley (SD) rats (280-300 g) were acclimated for a minimum of two days in individual cages in a laboratory animal room. At this time, the rats were allowed to freely consume food and water before an experiment, provided with light for 12 hours, and maintained in the dark state for 12 hours. One day before the experiment, the animals were provided only with water and fasted.
The rats prepared in above 1 were divided into each group of three to five rats so as to prepare a total of nine groups, after which each of the test substances prepared was intranasally administered into the group. At this time, the dosage of each drug was 1.0, 2.5 or 5.0 mg/kg per rat.
Before intranasal administration, the rat was anesthetized and cannulated into the femoral veno-artery using PE-50. The solution was carefully administered to the nostril of the rat using a micropipette (Eppendof) so as not to affect the nasal mucous membrane. At this time, the rat's body was laid on the floor and the head was placed while leaning against the wall.
The collected blood was centrifuged at 13,000 rpm for 10 minutes so as to obtain 100 μl of plasma. After adding 200 μl of methanol to the obtained plasma, the resulting solution was subjected into vortex, and then centrifuged again at 13,000 rpm for 10 minutes to carry out deproteinization, and the supernatant was quantitatively analyzed by HPLC-MS.

[1] = system: intestinal mucous membrane; assay: Intestinal (duodenum) administration of doxorubicin with peptide or peptide dimer in rats, doxorubicin blood concentration; conditions: rat, duodenum, peptide 10 mg/kg vs doxorubicin only
Protocol: as §1, §2, §3, §4

Caco-2 monolayer = assay: Drug permeability through the Caco-2 monolayer with peptide; conditions: peptide 5 mM, all drugs of Table 3
[2] = system: intestinal mucous membrane; conditions: rat, duodenum
Protocol: as §3
as §4, with “HPLC-MS.” for “HPLC-Fluorescence.”

[3] = rat, plasma, 10 mg/kg
Protocol: as §3
as §4, with “HPLC-MS.” for “HPLC-Fluorescence.”

in vitro = conditions: human, Caco-2
[4] = fexofenadine with peptide vs fexofenadine alone

| Compound | Fexofenadine AUC0-240 min, fold of control group (nasal mucous membrane; [4]) | Fexofenadine Cmax, fold of control group (nasal mucous membrane; [4]) | Fexofenadine Tmax, fold of control group (nasal mucous membrane; [4]) | Doxorubicin AUC0-240 min, fold of control [1] | also measured |
| --- | --- | --- | --- | --- | --- |
| COc1cccc2c1C(=O)c1c(O)c3c(c(O)c1C2=O)C[C@@](O)(C(=O)CO)C[C@@H]3O[C@H]1C[C@H](N)[C@H](O)[C@H](C)O1 [Doxorubicin, doxorubicin, reference compound] |  |  |  |  | AUC(0-t) (in vivo; male, Sprague-Dawley): 76.2 ng·h/mL |
| CC[C@H](C)[C@H](NC(=O)C(CN=[N+]=[N-])NC(=O)[C@H](N)Cc1ccccc1)C(=O)NCC(=O)N[C@@H](CCCNC(=N)N)C(=O)N[C@@H](CC(C)C)C(N)=O (stereo partly drawn) [Example 1, FX1IGRL-NH2(X1=Dap(N3))] (H-[dF][ξDap(N3)]IGRL-NH2) | (1.92-fold) | 3 fold | (0.57-fold) | (1.81-fold) | Fexofenadine Cmax, fold of control group (nasal mucous membrane; fexofenadine with peptide vs fexofenadine alone, listed as H-FX1IGRL-NH2): (2.90-fold); Fexofenadine AUC0-240 min, fold of control group (nasal mucous membrane; peptide 1 mg/kg): (1.64-fold); Fexofenadine Cmax, fold of control group (nasal mucous membrane; peptide 1 mg/kg): 2 fold; Fexofenadine Tmax, fold of control group (nasal mucous membrane; peptide 1 mg/kg): (0.57-fold); Fexofenadine Cmax, fold of control group (nasal mucous membrane; peptide 1 mg/kg, listed as H-FX1IGRL-NH2): (2.01-fold); Fexofenadine AUC0-240 min, fold of control group (nasal mucous membrane; peptide 5 mg/kg): (2.48-fold); Fexofenadine Cmax, fold of control group (nasal mucous membrane; peptide 5 mg/kg): 4 fold; Fexofenadine Tmax, fold of control group (nasal mucous membrane; peptide 5 mg/kg): (0.43-fold); Fexofenadine Cmax, fold of control group (nasal mucous membrane; peptide 5 mg/kg, listed as H-FX1IGRL-NH2): (4.05-fold); Fexofenadine Tmax, fold of control group (nasal mucous membrane; peptide […]): (0.57-fold) |
| CC[C@@H](C)[C@@H](NC(=O)[C@@H](CSSC[C@H](NC(=O)[C@H](N)Cc1ccccc1)C(=O)N[C@H](C(=O)NCC(=O)N[C@@H](CCCNC(=N)N)C(=O)N[C@@H](CC(C)C)C(N)=O)[C@@H](C)CC)NC(=O)[C@@H](N)Cc1ccccc1)C(=O)NCC(=O)N[C@H](CCCNC(=N)N)C(=O)N[C@H](CC(C)C)C(N)=O [Example 3, FCIGRL-NH2 Dimer] (I: H-F[dC][dI]G[dR][dL]-NH2 / II: H-[dF]CIGRL-NH2; disulfide I:2-II:2) | (5.30-fold) | 9.7 fold | (0.38-fold) | (2.29-fold) | AUC0-360min of fexofenadine, times higher than the group dosed with fexofenadine alone (nasal mucous membrane): 5.3 times; Fexofenadine Cmax, fold of control group (nasal mucous membrane; fexofenadine with peptide vs fexofenadine alone, listed as H-FCIGRL-NH2 (Dimer)): (9.76-fold); AUC(0-t) (in vivo; 10 mg/kg): 174 ng·h/mL; increase rate of Papp (cm/sec) of each drug, effect of promoting mucous membrane permeation (Caco-2 monolayer): at least seven times higher; Exenadine AUC0-240 min, fold of control ([2]; 5 mg/kg of peptide dimer vs exenadine alone, 5 mg/kg): about 2.17 fold; Exenadine AUC0-240 min, fold of control ([2]; 5 mg/kg of peptide dimer vs exenadine alone, listed as H-FCIGRL-NH2 (Dimer), 5 mg/kg): 3.88(2.17-fold); Exenadine AUC0-240 min, fold of control ([2]; 10 mg/kg of peptide dimer vs exenadine alone, 10 mg/kg): ~4.57 fold; Exenadine AUC0-240 min, fold of control ([2]; 10 mg/kg of peptide dimer vs exenadine alone, listed as H-FCIGRL-NH2 (Dimer), 10 mg/kg): 6.32 (4.57-fold); AUC(0-t) [3]: 343 ng·h/mL |
| CC[C@H](C)[C@H](NC(=O)[C@H](CSSC[C@H](NC(=O)[C@@H](N)Cc1ccccc1)C(=O)N[C@H](C(=O)NCC(=O)N[C@@H](CCCNC(=N)N)C(=O)N[C@@H](CC(C)C)C(=O)O)[C@@H](C)CC)NC(=O)[C@@H](N)Cc1ccccc1)C(=O)NCC(=O)N[C@@H](CCCNC(=N)N)C(=O)N[C@@H](CC(C)C)C(=O)O [Example 4, FCIGRL-OH Dimer] (I: H-FCIGRL-OH / II: H-FCIGRL-OH; disulfide I:2-II:2) | (3.64-fold) | 6 fold | (0.41-fold) |  | AUC0-360min of fexofenadine, times higher than the group dosed with fexofenadine alone (nasal mucous membrane): 3.6 times; Fexofenadine Cmax, fold of control group (nasal mucous membrane; fexofenadine with peptide vs fexofenadine alone, listed as H-FCIGRL-OH (Dimer)): (6.06-fold) |
| CC[C@H](C)[C@H](NC(=O)[C@H](CSSC[C@H](NC(=O)[C@H](Cc1ccccc1)NC(=O)[C@@H](N)CN=[N+]=[N-])C(=O)N[C@H](C(=O)NCC(=O)N[C@@H](CCCNC(=N)N)C(=O)N[C@@H](CC(C)C)C(N)=O)[C@@H](C)CC)NC(=O)[C@H](Cc1ccccc1)NC(=O)[C@@H](N)CN=[N+]=[N-])C(=O)NCC(=O)N[C@@H](CCCNC(=N)N)C(=O)N[C@@H](CC(C)C)C(N)=O [Example 5, X1FCIGRL-NH2 Dimer] (I: H-[Dap(N3)]FCIGRL-NH2 / II: H-[Dap(N3)]FCIGRL-NH2; disulfide I:3-II:3) |  |  |  | (1.77-fold) |  |
| COCCc1ccc(OCC(O)CNC(C)C)cc1 (stereo not drawn) [metoprolol] |  |  |  |  | Papp (in vitro): 38.9 ×10⁻⁶ cm/s |
| FCIGRL [Preparation Example 2, FCIGRL, reference compound] | (1.53-fold) | (1.16-fold) | (1.52-fold) |  |  |
| FCIGRL-NH2 [Preparation Example 1, FCIGRL-NH2, reference compound] | (1.70-fold) | (1.45-fold) | (1.14-fold) | (1.49-fold) |  |
| FKIGRL [Preparation Example 4, FKIGRL, reference compound] | (1.09-fold) | (0.71-fold) | (1.14-fold) |  |  |
| FRIGRL [Preparation Example 3, FRIGRL, reference compound] | (1.39-fold) | (0.73-fold) | (1.71-fold) |  |  |
